The numbers were not newly measured in patent publication US20210360928A1, “ANTIMICROBIAL/ANTIVIRAL NONWOVEN AND APPLICATIONS OF THE SAME” (priority 2020, published 2021), which cites them from elsewhere.

Regarding `[Cl][Ag]` [silver chloride], the solubility in water entry is “unusually insoluble in water”.
